Experimental data from patent US9969694B2, “N-(arylalkyl)-N′-pyrazolyl-urea, thiourea, guanidine and cyanoguanidine compounds as TrkA kinase inhibitors” (Array BioPharma Inc., priority 2012, dated 2018).
pIC50: −log10 of the molar value.

How the values were obtained:
[1] = biological target: T1, His-tagged recombinant human TrkA (Homo sapiens, UniProt P04629); experiment: TrkA Kinase Binding Assay (LanthaScreen Eu); conditions: averaged IC50; TR-FRET binding, 60 min, 22° C.; read-out: TrkA Enzyme IC50
T1 construct: 6HIS tagged cytoplasmic domain from Invitrogen, Catalog No. PV3144; purchased Invitrogen PV3144
T1 sequence (P04629 440-796 limits assumed): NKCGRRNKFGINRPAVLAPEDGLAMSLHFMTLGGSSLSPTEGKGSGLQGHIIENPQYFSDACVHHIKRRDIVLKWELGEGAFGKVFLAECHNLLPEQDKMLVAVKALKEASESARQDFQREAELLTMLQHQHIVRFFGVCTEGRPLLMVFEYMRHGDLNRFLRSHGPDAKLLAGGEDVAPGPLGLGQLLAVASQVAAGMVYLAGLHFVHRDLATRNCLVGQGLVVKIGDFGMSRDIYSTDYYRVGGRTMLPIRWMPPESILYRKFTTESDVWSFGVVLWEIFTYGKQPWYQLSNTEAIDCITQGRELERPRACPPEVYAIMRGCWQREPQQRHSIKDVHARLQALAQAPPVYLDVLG
Method in brief: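 TR-FRET tracer displacement: 5 nM His-tagged TrkA cytoplasmic domain with 4 nM Tracer 236, biotinylated anti-His and Eu-streptavidin in pH 7.5 MOPS buffer, 2% DMSO, 60 min at 22 °C. 665/615 nm emission ratio gave percent of control; IC50 from four-parameter fit.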

[2] = biological target: T2, PRKG1alpha (Homo sapiens, UniProt Q13976); experiment: Off-Target Kinase Profiling; type: biochemical; conditions: 10 μM; ATP near Km
T2 construct: purchased Millipore, Inc. (KinaseProfiler service)
Method in brief: (§1)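 Run as part of a full commercial kinase panel: compound fixed at 10 μM, duplicate wells, ATP concentration near the individual enzyme Km. Output is POC, averaged across both determinations.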

[3] = biological target: T3, IR (Homo sapiens, UniProt P06213); experiment: Off-Target Kinase Profiling; type: biochemical; conditions: 10 μM; ATP near Km
T3 construct: purchased Millipore, Inc. (KinaseProfiler service)
Method in brief: as §1

[4] = biological target: T4, Plk1 (Homo sapiens, UniProt P53350); experiment: Off-Target Kinase Profiling; type: biochemical; conditions: 10 μM; ATP near Km
T4 construct: purchased Millipore, Inc. (KinaseProfiler service)
T4 sequence (P53350 whole entry): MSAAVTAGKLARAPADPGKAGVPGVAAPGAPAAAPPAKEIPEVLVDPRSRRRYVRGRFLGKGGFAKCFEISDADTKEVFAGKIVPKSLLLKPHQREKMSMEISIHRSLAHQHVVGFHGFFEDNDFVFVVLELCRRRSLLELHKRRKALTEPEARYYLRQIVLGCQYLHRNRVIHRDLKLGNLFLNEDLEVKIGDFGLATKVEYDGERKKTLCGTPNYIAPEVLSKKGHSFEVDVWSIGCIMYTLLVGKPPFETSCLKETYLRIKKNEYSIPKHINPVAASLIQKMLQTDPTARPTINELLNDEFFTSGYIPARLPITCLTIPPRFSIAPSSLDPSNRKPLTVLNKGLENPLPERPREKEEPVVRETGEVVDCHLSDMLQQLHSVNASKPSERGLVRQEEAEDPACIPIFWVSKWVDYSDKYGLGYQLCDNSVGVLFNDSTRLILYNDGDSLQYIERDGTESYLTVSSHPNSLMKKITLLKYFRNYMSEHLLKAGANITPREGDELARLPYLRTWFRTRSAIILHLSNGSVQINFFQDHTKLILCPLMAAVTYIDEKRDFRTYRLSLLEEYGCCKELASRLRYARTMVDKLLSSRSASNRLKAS
Method in brief: as §1

[5] = biological target: T5, MST2 (Homo sapiens, UniProt Q13188); experiment: Off-Target Kinase Profiling; type: biochemical; conditions: 10 μM; ATP near Km
T5 construct: purchased Millipore, Inc. (KinaseProfiler service)
Method in brief: as §1

[6] = biological target: T6, p38beta (Homo sapiens, UniProt Q15759); experiment: Off-Target Kinase Profiling; type: biochemical; conditions: 10 μM; ATP near Km
T6 construct: purchased Millipore, Inc. (KinaseProfiler service)
Method in brief: as §1

[7] = biological target: T7, PKCalpha (Homo sapiens, UniProt P17252); experiment: Off-Target Kinase Profiling; type: biochemical; conditions: 10 μM; ATP near Km
T7 construct: purchased Millipore, Inc. (KinaseProfiler service)
Method in brief: as §1

[8] = biological target: T8, PKCiota (Homo sapiens, UniProt P41743); experiment: Off-Target Kinase Profiling; type: biochemical; conditions: 10 μM; ATP near Km
T8 construct: purchased Millipore, Inc. (KinaseProfiler service)
Method in brief: as §1

[9] = biological target: T9, MYLK (Homo sapiens, UniProt Q15746); experiment: Off-Target Kinase Profiling; type: biochemical; conditions: 10 μM; ATP near Km
T9 construct: purchased Millipore, Inc. (KinaseProfiler service)
Method in brief: as §1

[10] = biological target: T10, TLK2 (Homo sapiens, UniProt Q86UE8); experiment: Off-Target Kinase Profiling; type: biochemical; conditions: 10 μM; ATP near Km
T10 construct: purchased Millipore, Inc. (KinaseProfiler service)
T10 sequence (Q86UE8 whole entry): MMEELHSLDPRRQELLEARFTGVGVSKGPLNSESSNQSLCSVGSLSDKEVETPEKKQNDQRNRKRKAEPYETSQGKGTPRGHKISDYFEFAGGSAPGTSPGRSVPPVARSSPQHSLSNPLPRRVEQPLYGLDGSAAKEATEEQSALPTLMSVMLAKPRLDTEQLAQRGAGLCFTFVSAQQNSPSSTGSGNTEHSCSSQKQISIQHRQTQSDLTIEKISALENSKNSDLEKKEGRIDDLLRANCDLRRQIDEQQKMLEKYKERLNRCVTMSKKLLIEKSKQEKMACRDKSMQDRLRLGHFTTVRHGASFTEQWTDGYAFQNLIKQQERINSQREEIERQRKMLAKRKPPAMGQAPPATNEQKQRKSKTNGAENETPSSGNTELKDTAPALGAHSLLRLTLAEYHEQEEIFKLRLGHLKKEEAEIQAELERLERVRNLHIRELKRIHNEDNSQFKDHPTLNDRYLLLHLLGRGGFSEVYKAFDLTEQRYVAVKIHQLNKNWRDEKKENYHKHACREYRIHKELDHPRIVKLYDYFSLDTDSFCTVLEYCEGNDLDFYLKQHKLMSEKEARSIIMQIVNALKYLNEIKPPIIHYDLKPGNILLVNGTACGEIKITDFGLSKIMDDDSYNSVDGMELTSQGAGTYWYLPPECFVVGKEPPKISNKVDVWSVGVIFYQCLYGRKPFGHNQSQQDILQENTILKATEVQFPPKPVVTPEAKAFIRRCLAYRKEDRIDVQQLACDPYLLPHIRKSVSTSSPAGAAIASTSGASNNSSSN
Method in brief: as §1

[11] = biological target: T11, TAK1 (Homo sapiens, UniProt O43318); experiment: Off-Target Kinase Profiling; type: biochemical; conditions: 10 μM; ATP near Km
T11 construct: purchased Millipore, Inc. (KinaseProfiler service)
T11 sequence (O43318 1-303 limits assumed): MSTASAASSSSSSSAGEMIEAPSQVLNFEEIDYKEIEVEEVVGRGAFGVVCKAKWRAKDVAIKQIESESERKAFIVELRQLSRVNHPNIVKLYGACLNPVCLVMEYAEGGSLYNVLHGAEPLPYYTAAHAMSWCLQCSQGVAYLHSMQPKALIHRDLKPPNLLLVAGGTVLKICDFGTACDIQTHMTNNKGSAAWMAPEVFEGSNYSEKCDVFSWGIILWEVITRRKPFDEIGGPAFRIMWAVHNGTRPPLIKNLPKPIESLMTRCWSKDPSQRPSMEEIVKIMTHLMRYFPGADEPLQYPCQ
Method in brief: as §1

[12] = biological target: T12, Ret (Homo sapiens, UniProt P07949); experiment: Off-Target Kinase Profiling; type: biochemical; conditions: 10 μM; ATP near Km
T12 construct: purchased Millipore, Inc. (KinaseProfiler service)
Method in brief: as §1

[13] = biological target: T13, BrSK2 (Homo sapiens, UniProt Q8IWQ3); experiment: Off-Target Kinase Profiling; type: biochemical; conditions: 10 μM; ATP near Km
T13 construct: purchased Millipore (KinaseProfiler service)
Method in brief: as §1

[14] = biological target: T14, CK1gamma3 (Homo sapiens, UniProt Q9Y6M4); experiment: Off-Target Kinase Profiling; type: biochemical; conditions: 10 μM; ATP near Km
T14 construct: purchased Millipore, Inc. (KinaseProfiler service)
Method in brief: as §1

[15] = biological target: T15, MSSK1 (Homo sapiens, UniProt Q9UPE1); experiment: Off-Target Kinase Profiling; type: biochemical; conditions: 10 μM; ATP near Km
T15 construct: purchased Millipore, Inc. (KinaseProfiler service)
T15 sequence (Q9UPE1 whole entry): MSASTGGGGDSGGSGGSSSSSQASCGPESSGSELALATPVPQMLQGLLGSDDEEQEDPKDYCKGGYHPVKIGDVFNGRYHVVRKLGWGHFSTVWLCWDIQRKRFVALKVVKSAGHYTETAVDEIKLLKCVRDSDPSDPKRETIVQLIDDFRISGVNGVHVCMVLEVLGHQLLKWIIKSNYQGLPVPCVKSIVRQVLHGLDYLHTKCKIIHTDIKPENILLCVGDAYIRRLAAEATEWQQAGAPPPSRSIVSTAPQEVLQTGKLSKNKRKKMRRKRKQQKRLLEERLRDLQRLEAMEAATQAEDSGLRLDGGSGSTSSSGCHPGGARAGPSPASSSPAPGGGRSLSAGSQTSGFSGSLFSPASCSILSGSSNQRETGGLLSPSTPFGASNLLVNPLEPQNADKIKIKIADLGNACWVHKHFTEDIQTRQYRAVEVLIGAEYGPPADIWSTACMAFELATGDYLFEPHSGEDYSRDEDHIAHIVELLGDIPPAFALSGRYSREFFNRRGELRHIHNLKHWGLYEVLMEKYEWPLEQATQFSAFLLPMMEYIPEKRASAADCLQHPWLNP
Method in brief: as §1

[16] = biological target: T16, LIMK1 (Homo sapiens, UniProt P53667); experiment: Off-Target Kinase Profiling; type: biochemical; conditions: 10 μM; ATP near Km
T16 construct: purchased Millipore, Inc. (KinaseProfiler service)
Method in brief: as §1

[17] = biological target: T17, CK1gamma2 (Homo sapiens, UniProt P78368); experiment: Off-Target Kinase Profiling; type: biochemical; conditions: 10 μM; ATP near Km
T17 construct: purchased Millipore, Inc. (KinaseProfiler service)
Method in brief: as §1

[18] = biological target: T18, TAO1 (Homo sapiens, UniProt Q7L7X3); experiment: Off-Target Kinase Profiling; type: biochemical; conditions: 10 μM; ATP near Km
T18 construct: purchased Millipore, Inc. (KinaseProfiler service)
Method in brief: as §1

[19] = biological target: T19, p70S6K (Homo sapiens, UniProt P23443); experiment: Off-Target Kinase Profiling; type: biochemical; conditions: 10 μM; ATP near Km
T19 construct: purchased Millipore, Inc. (KinaseProfiler service)
Method in brief: as §1

[20] = biological target: T20, TSSK1 (Homo sapiens, UniProt Q9BXA7); experiment: Off-Target Kinase Profiling; type: biochemical; conditions: 10 μM; ATP near Km
T20 construct: purchased Millipore, Inc. (KinaseProfiler service)
T20 sequence (Q9BXA7 whole entry): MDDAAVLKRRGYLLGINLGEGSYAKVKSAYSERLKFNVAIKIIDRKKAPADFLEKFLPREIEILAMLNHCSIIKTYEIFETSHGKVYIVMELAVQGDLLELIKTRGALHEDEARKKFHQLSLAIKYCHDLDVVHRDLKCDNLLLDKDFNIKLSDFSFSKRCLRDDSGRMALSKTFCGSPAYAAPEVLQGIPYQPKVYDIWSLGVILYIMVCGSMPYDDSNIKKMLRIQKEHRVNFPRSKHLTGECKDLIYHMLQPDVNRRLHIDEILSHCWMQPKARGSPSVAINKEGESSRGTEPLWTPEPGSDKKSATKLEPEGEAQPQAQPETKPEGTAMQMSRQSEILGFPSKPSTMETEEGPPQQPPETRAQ
Method in brief: as §1

[21] = biological target: T21, LOK (Homo sapiens, UniProt O94804); experiment: Off-Target Kinase Profiling; type: biochemical; conditions: 10 μM; ATP near Km
T21 construct: purchased Millipore, Inc. (KinaseProfiler service)
T21 sequence (O94804 whole entry): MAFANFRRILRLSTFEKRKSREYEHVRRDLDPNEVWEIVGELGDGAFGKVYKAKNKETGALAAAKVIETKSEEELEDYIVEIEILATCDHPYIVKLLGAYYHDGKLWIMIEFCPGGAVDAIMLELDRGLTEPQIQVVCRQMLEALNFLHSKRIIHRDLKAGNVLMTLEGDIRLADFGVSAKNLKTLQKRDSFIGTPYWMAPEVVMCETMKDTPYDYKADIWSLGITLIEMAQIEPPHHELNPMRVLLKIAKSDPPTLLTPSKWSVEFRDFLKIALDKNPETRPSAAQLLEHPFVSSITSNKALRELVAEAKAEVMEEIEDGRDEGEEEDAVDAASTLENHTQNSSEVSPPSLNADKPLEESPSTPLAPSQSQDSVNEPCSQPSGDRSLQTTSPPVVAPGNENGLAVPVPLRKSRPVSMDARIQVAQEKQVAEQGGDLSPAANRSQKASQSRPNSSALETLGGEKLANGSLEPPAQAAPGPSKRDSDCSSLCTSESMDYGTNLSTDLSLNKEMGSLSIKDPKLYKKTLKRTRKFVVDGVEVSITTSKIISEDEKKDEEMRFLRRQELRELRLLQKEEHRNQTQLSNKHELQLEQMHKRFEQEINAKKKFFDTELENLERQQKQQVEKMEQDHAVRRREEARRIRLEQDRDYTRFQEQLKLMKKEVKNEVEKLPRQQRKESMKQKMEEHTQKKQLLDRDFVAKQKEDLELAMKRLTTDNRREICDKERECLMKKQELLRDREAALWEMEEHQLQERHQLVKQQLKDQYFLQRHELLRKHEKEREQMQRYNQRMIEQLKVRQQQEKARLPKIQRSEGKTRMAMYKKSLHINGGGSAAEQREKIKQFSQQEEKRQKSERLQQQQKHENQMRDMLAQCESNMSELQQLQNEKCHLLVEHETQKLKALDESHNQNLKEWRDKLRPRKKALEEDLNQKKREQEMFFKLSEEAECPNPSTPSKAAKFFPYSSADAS
Method in brief: as §1

[22] = biological target: T22, TAO3 (Homo sapiens, UniProt Q9H2K8); experiment: Off-Target Kinase Profiling; type: biochemical; conditions: 10 μM; ATP near Km
T22 construct: purchased Millipore, Inc. (KinaseProfiler service)
Method in brief: as §1

[23] = biological target: T23, TBK1 (Homo sapiens, UniProt Q9UHD2); experiment: Off-Target Kinase Profiling; type: biochemical; conditions: 10 μM; ATP near Km
T23 construct: purchased Millipore, Inc. (KinaseProfiler service)
Method in brief: as §1

[24] = biological target: T24, MRCKalpha (Homo sapiens, UniProt Q5VT25); experiment: Off-Target Kinase Profiling; type: biochemical; conditions: 10 μM; ATP near Km
T24 construct: purchased Millipore, Inc. (KinaseProfiler service)
Method in brief: as §1

[25] = biological target: T25, EphB2 (Homo sapiens, UniProt P29323); experiment: Off-Target Kinase Profiling; type: biochemical; conditions: 10 μM; ATP near Km
T25 construct: purchased Millipore, Inc. (KinaseProfiler service)
T25 sequence (P29323 19-1055): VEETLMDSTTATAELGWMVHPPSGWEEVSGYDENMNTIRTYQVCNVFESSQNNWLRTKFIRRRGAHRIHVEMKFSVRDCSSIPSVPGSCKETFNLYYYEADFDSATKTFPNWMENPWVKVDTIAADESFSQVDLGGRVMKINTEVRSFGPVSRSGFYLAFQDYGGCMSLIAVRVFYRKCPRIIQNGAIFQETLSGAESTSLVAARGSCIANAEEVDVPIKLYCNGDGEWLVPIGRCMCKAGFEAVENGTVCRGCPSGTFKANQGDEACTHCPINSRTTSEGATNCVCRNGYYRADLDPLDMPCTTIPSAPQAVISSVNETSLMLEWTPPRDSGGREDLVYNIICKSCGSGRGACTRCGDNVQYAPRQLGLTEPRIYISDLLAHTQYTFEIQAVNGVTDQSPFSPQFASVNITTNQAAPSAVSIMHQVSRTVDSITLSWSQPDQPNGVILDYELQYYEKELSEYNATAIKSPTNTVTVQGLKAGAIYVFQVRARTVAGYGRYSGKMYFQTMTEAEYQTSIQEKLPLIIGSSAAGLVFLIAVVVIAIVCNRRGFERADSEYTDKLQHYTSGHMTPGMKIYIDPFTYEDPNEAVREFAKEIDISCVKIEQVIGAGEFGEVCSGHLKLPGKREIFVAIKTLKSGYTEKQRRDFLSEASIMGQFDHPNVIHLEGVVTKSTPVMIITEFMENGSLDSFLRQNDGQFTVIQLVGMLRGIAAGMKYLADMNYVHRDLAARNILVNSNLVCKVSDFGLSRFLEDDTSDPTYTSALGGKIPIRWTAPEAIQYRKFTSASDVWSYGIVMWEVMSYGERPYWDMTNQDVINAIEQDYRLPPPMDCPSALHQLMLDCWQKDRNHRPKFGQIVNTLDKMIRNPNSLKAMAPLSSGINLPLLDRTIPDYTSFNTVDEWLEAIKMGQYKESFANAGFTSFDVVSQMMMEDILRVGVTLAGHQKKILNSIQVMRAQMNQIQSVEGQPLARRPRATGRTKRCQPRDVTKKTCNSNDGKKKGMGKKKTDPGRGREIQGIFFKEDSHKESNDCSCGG
Method in brief: as §1

| Structure (SMILES) | pIC50 [1] | Avg POC PRKG1alpha [2] | Avg POC IR [3] | Avg POC Plk1 [4] | Avg POC MST2 [5] | Avg POC p38beta [6] | Avg POC PKCalpha [7] | Avg POC PKCiota [8] | Avg POC MYLK [9] | Avg POC TLK2 [10] | Avg POC TAK1 [11] | Avg POC Ret [12] | Avg POC BrSK2 [13] | Avg POC CK1gamma3 [14] | Avg POC MSSK1 [15] | Avg POC LIMK1 [16] | Avg POC CK1gamma2 [17] | Avg POC TAO1 [18] | Avg POC p70S6K [19] | Avg POC TSSK1 [20] | further results |
| --- | --- | --- | --- | --- | --- | --- | --- | --- | --- | --- | --- | --- | --- | --- | --- | --- | --- | --- | --- | --- | --- |
| COCc1ccc(C(F)(F)F)c(CNC(=O)Nc2c(C)c(-c3cnn(C)c3)nn2-c2ccccc2)c1 [Example 33, 1-(1′,4-dimethyl-1-phenyl-1H,1′H-[3,4′-bipyrazol]-5-yl)-3-(5-(methoxymethyl)-2-(trifluoromethyl)benzyl)urea] | > 7.00 | 122.5 POC | 68 POC | 93 POC | 98 POC | 111.5 POC | 104.5 POC | 64 POC | 100.5 POC | 109 POC | 88.5 POC | 91 POC | 145.5 POC | 119.5 POC | 138.5 POC | 91.5 POC | 113.5 POC | 118.5 POC | 377 POC | 80 POC | Avg POC LOK [21]: 93.5 POC; Avg POC TAO3 [22]: 89.5 POC; Avg POC TBK1 [23]: 105.5 POC; Avg POC MRCKalpha [24]: 147 POC; Avg POC EphB2 [25]: 112.5 POC |
| COCc1ccc(C2CCC2)c(CNC(=O)Nc2c(C)c(-c3cnc(C)nc3)nn2-c2ccccc2)c1 [Example 10, 1-(2-cyclobutyl-5-(methoxymethyl)benzyl)-3-(4-methyl-3-(2-methylpyrimidin-5-yl)-1-phenyl-1H-pyrazol-5-yl)urea] | > 7.00 | 113 POC | 90 POC | 84 POC | 97.5 POC | 101.5 POC | 100.5 POC | 65.5 POC | 88 POC | 97.5 POC | 86 POC | 89.5 POC | 95 POC | 39 POC | 112 POC | 92 POC | 69.5 POC | 111 POC | 111 POC | 60 POC | Avg POC LOK [21]: 101 POC; Avg POC TAO3 [22]: 88.5 POC; Avg POC TBK1 [23]: 104.5 POC; Avg POC MRCKalpha [24]: 122 POC; Avg POC EphB2 [25]: 103 POC |
